Measurements: patent US20110229438A1, “METHOD OF INHIBITING HEPATITUS C VIRUS BY COMBINATION OF A 5,6-DIHYDRO-1H-PYRIDIN-2-ONE AND ONE OR MORE ADDITIONAL ANTIVIRAL COMPOUNDS” (priority 2008, published 2011)
Like-named read-outs stand apart in the source and are kept apart here.

Test system: HCV Huh-luc/neo-ET cells (HCV replicon)
Assay: Luciferase-based HCV replicon assay, single agents and combinations
Format: cell-based, hepatitis C virus
Conditions: for increase of potency in the presence of Compound 2: Compound 2 at concentrations readily achieved clinically, FIGS. 2b, 3b, Table 2
Protocol: The cell culture component of the assay is performed essentially as described by Bartenschlager et al., Hepatology, 2002, 35, 694-703, wherein exponentially growing HCV Huh-luc/neo-ET cells are seeded at 6×10^3 cells/well in 96 well assay plate. 24 hours later the cells are treated with various concentrations of compound or combination of compounds in triplicate using both fixed ratios and checkerboard matrices of test agents and cultured for 72 hours. The luciferase activity in the wells is determined using Bright-Glo reagent (Promega, Madison, Wis.) with a luminometer (Wallac 1420 Multilabel HTS Counter Victor 2). The background control is replicon cells treated with 100 nM BILN-2061, an inhibitor of the HCV protease. % Inhibition is determined for each compound concentration or combination of compounds in relation to the negative (no compound) control to calculate the EC50. In the case of ANA773, conditioned media from human PBMCs from multiple donors is pooled after treatment with 100 μM of the active of ANA773 for 24 hours.
Compound 2 was evaluated in combination with Interferon α-2a, Telaprevir (HCV NS3/4 protease inhibitor, also known as VX-950), PSI-6130 the active agent of R7128 (HCV NS5B nucleoside inhibitor), and ANA773 (TLR7 agonist). The 50% inhibitory concentration (EC50) of each compound or combination of compounds is determined independently to determine the range of concentrations used to characterize the interaction of two agents in inhibiting the HCV replicon. […] The ratio of the two compounds tested either remained fixed or is varied across the dosing range to explore the greatest combination surface.
The combination data is analyzed using CalcuSyn (Biosoft, Ferguson, Mo.), a computer program based on the method of Chou and Talalay, J. Biol. Chem., 1977, 252, 6438-6442. Combination index (CI) values for each experimental combination are calculated at the EC50, EC75 and EC90 levels. CI values of <1, 1, and >1 indicate synergy, an additive effect, and antagonism, respectively.

Compound	increase of potency in the presence of Compound 2	EC90 (Hepatitis C virus, Huh-luc/neo-ET, Compound 2 at 0 ng/mL (agent alone)) [nM]	EC90 (Hepatitis C virus, Huh-luc/neo-ET, in presence of fixed Compound 2 at 6 ng/mL) [nM]	EC90 (Hepatitis C virus, Huh-luc/neo-ET, in presence of fixed Compound 2 at 17 ng/mL) [nM]	EC90 (Hepatitis C virus, Huh-luc/neo-ET, in presence of fixed Compound 2 at 170 ng/mL) [nM]	EC90 (Compound 2 at 0 ng/mL (agent alone), read-out: EC90) [nM]	EC90 (in presence of fixed Compound 2 at 6 ng/mL, read-out: EC90) [nM]	EC90 (in presence of fixed Compound 2 at 17 ng/mL, read-out: EC90) [nM]
CCC[C@H](NC(=O)[C@@H]1[C@H]2CCC[C@H]2CN1C(=O)[C@@H](NC(=O)[C@@H](NC(=O)c1cnccn1)C1CCCCC1)C(C)(C)C)C(=O)C(=O)NC1CC1 [Telaprevir]	2-3 fold	2800	2400	1900	1300			
C[C@@]1(F)[C@H](O)[C@@H](CO)O[C@H]1n1ccc(N)nc1=O [PSI-6130]	4-5 fold					11600	6000	2400
